Data reported in patent publication US20240156790A1, “COMPOUNDS, COMPOSITIONS, AND METHODS FOR MODULATING FERROPTOSIS AND TREATING EXCITOTOXIC DISORDERS” (THE TRUSTEES OF COLUMBIA UNIVERSITY IN THE CITY OF NEW YORK, priority 2018, published 2024).
Entries after “also recorded” stand apart in the source; their conditions may differ.

Key:
HT-1080 cells = experiment: Rescue activity of selected Fer-1 analogs, dose-response in HT-1080 cells (cell titer glo); format: cell-based
Experimental: Selected Fer-1 analogs containing a pyridine moiety (FIG. 4) were tested to examine their efficacy and overall potency in inhibiting ferroptosis. For each of these compounds, dose-response curves were generated in HT-1080 cells looking at the effectiveness of the molecules in inhibiting ferroptosis induced by either 3 μM IKE or 0.2 μM RSL3, Fer-1 was used as a positive control. For each dose-response curve, 1,000 cells/well were seeded in a 384 well plate and allowed to adhere overnight prior to treating with compound from a daughter plate. Cells were treated for 48 hours, unless otherwise noted, prior to viability being analyzed using cell titer glo (40 μL per well). All liquid handling was performed using the BioMek. All samples were prepared in triplicate, unless otherwise noted.

[1] = Plasma stability, mouse plasma (Table 1); format: in vitro ADME
[2] = Microsomal stability, human liver microsomes (Table 1); format: in vitro ADME; conditions: liver microsomes; Human: Pooled, 50 donors; read-out: Microsomal Stability t1/2 (converted)
[3] = Microsomal stability, dog (Table 1); format: in vitro ADME; conditions: Dog: Beagle
Experimental: Each compound (1 μM) is incubated with mouse plasma, for 4 hours at 37° C., with shaking at 100 rpm. The concentration of compound in the buffer and plasma chambers is determined using LC-MS/MS. Metabolism of each compound is predicted using Sites of Metabolism (Schrodinger Suite), which combines intrinsic reactivity analysis (Hammett-Taft) with induced fit docking against 2C9, 2D6 and 3A4. This approach identifies 90% of known metabolism sites and has a false positive rate of 17%. The in vitro metabolic stability of each compound in mouse liver microsomes is determined. Pooled mouse liver microsomes are prepared and stored at −80° C. until needed. Compound stability in liver microsomes is measured at 0, 15, 30, 45 and 60 minutes in duplicate, using LC-MS/MS analysis.

[4] = Plasma stability, human (Table 1); format: in vitro ADME
[5] = tested on: renal tubular ferroptosis; experiment: Renal tubular ferroptosis model triggered by ferric nitrilotriacetate (Fe-NTA); format: in vivo, Sprague-Dawley rat
Experimental: Fe(NO3)3·12H2O (Wako, Osaka, Japan) and nitrilotriacetic acid disodium salt (Tokyo Chemical Industry, Tokyo, Japan) were dissolved in deionized water to generate 300 mM and 600 mM solutions, respectively, which were mixed immediately before injections by a ratio of 1:2 (v/v) and then adjusted to pH 7.4 with sodium carbonate to make Fe-NTA solution. PHB4082 was dissolved in 5% DMSO/95% of 65% v/v of 25% w/v 2-hydroxypropyl-β-cyclodextrin (Cayman Chemical) dissolved in 20% EtOH, 30% v/v Poly(ethylene glycol)-400 (Sigma Aldrich 202398), 5% v/v Tween 80 (Fluka 59924) to generate 2 mg/mL solution. The same formulation without PHB4082 was used as vehicle control. For both the solutions ultrasonic disruptor was applied to accelerate the dissolution and they are stored at −20° C. up to one week before injections.
Male wild-type Sprague-Dawley rat (CLEA Japan, Tokyo; n=6 for vehicle control, n=7 for PHB4082 pretreatment) at 4-6 weeks of age were fasted for 12 h prior to intraperitoneal administration of 2 mg/ml PHB4082 solution as pretreatment or with the formulation without PHB4082 as vehicle control. Two hours later all the rats were followed by IP injection of Fe-NTA with a dose of 10 mg iron/kg. The rats were euthanized 24 h after Fe-NTA injection. Fresh kidney tissues were excised and were either fixed in 10% phosphate-buffered formalin or preserved at −80° C. for subsequent analysis. The animal experiment committee of Nagoya University Graduate School of Medicine approved the animal experiments.
Immunostainings were performed by BOND MAX/III (Leica, Wetzlar, Germany) with BOND Polymer Refine Detection (ds9800; Leica) as described. Primary antibodies applied were listed as: anti-4-hydroxy-2-nonenal (HNE) modified proteins antibody (anit-HNEJ-1, in house), anti-transferrin receptor antibody (13-6800, Invitrogen). Quantitation of renal tubular ferroptosis was performed by measuring the necrotized cortical area after H&E staining by identifying the area of necrotized tubules with loss of nuclei. ImageJ was used for quantification of % necrosis area with randomly selected microscopic areas (×20, objective lens; n=9).
We evaluated the ferroptosis protection effect of PHB4082 in a renal tubular ferroptosis model. This model was previously established by Toyokuni lab (Kong et al. 2022; Toyokuni et al. 2022; Akatsuka et al. 2012). A Fenton-reaction based renal carcinogenesis in this model results from repeated intraperitoneal injections of ferric nitrilotriacetate (Fe-NTA). This iron chelate could specifically induce proximal epithelial ferroptosis via single IP administration. […] We chose 24 h after Fe-NTA administration for evaluation of the effects of PHB4082 because this is the peak time for renal tubular necrosis.

[6] = GSH adduct formation (GSH trapping) assay; format: in vitro ADME
Description: We then tested PHB4082 in a GSH adduct formation assay and the Ames test.

SMILES | death observed with RSL3 (HT-1080 cells; 0.2 μM RSL3, inhibitor range 10 μM-0 μM) | rescue against IKE and erastin (HT-1080 cells; inhibitor 1 μM-0 μM, 3 μM IKE, 10 μM erastin, 48 hours) [%] | Plasma Stability at six hours (% remaining) [1] | half-life [2] [min] | Microsomal Stability, % remaining t = 120 [3] [%] | Plasma Stability at six hours (% remaining) [4] [%] | HNE adducts in proximal tubules (HNEJ-1 immunostaining) ([5]; 24 h after Fe-NTA) | TfR1 / TRF1/CD71 signals in proximal tubules ([5]; 24 h after Fe-NTA) | necrotized renal tubular area ([5]; 24 h after Fe-NTA) | survival 24 h after Fe-NTA administration ([5]; IP pretreatment 2 h before Fe-NTA 10 mg iron/kg) | GSH adduct formation / trapping result [6]
CCOC(=O)c1ccc(NC2CCCCC2)c(N)c1 [Fer-1, Ferrostatin-1, reference compound] | No death was observed | ~50 | 0-2% | 11.4 | 49.5 ± 9.6 | 100 |  |  |  |  | 
Cc1noc(-c2ccc(NC3CCCCC3)c(NC3CCCCC3)c2)n1 [PHB4082, N1,N2-dicyclohexyl-4-(3-methyl-1,2,4-oxadiazol-5-yl)benzene-1,2-diamine] |  |  |  |  |  |  | less amounts of HNE adducts | low to moderate signals in the proximal tubules; also recorded: less signals for TRF1/CD71 | dramatically reduced the necrotized renal tubular area | all of those with PHB4082 pretreatment survived 24 hrs | positive in a GSH trapping assay; also recorded: positive in the GSH adduct formation assay
